Assay results reported in patent US11627753B2, “Solubilized steviol glycoside compositions” (JAMES AND CAROL MAY FAMILY, LLLP, priority 2014, dated 2023).

Assay: Precipitation from aqueous solution in the absence of the emulsifier
Type: physicochemical
Conditions: without natural emulsifier
Text: In accordance with various exemplary embodiments of the present technology, the sweetener composition may comprise a natural emulsifier. The natural emulsifier may function to disperse the stevia glycosides through an aqueous solution such as water. The dissolved concentration of the stevia glycosides in the aqueous solution may be higher in the presence of the natural emulsifier than in the absence of the natural emulsifier. For example, rebaudioside A present in amounts of 11% by weight or greater may precipitate from an aqueous solution. In various embodiments of the present technology, the natural emulsifier may allow rebaudioside A to be present in aqueous solution in amounts of up to about 20% by weight without precipitation. In some embodiments, adding the natural emulsifier to an aqueous (ie., water-based) solution of stevia glycosides may stabilize the solubility of the sweetener composition including reducing or eliminating the precipitation of solids from the solution by binding any of the components to prevent separation of the finished sweetener composition.
In various embodiments, the solubility of the aqueous sweetener composition may remain stable for more than five days at room temperature. In some embodiments, the solubility of the aqueous sweetener composition may remain a stable for at least six months at room temperature. […]

## C=C1C[C@@]23CC[C@H]4[C@@](C)(CCC[C@@]4(C)C(=O)O[C@@H]4O[C@H](CO)[C@@H](O)[C@H](O)[C@H]4O)[C@@H]2CC[C@]1(O[C@@H]1O[C@H](CO)[C@@H](O)[C@H](O[C@@H]2O[C@H](CO)[C@@H](O)[C@H](O)[C@H]2O)[C@H]1O[C@@H]1O[C@H](CO)[C@@H](O)[C@H](O)[C@H]1O)C3 [rebaudioside A]
  amount at which it may precipitate from an aqueous solution: ≥ 11 % by weight
